These results are taken from patent publication US6630583B1, “Antibiotics and methods of using the same” (priority 1998, dated 2003).

Test [1] has as its system T4 strain (which encodes the T4 type Vex2 receptor). Kind of test: Killing in vitro by synthetic R6 peptide. It is filed as cell-based, pneumococcus. As to conditions: synthetic R6 peptide added to a T4 strain. The source says:
Clinical isolates were sequenced and a predominance of the R6 type amino acid sequence for the P27 peptide and of the Type 4 amino acid sequence for the Vex2 transporter was found. Out of fourteen isolates that were screened for Vex2, twelve had the Type 4 allele and only two had the R6 type allele. Eleven of the fourteen isolates were also screened for the P27 peptide. Nine were of the R6 type P27 allele (SEQ ID NO:60) and only two were of the Type 4 P27 allele. Thus, most of the isolates examined encoded an R6 type peptide (SEQ ID NO:60) and a T4 type Vex transporter. Importantly, two of the three tolerant strains encoded either the R6 type P27 peptide and the R6 type Vex2, or alternatively, the T4 type P27 peptide and the T4 type Vex2 receptor indicating an over-representation of these “matching” combinations in tolerant strains. Furthermore, isolates encoding a mix of R6/T4 type P27 peptide/Vex2 receptor were more susceptible to being killed in vitro, i.e. when the synthetic R6 peptide was added to a T4 strain (which encodes the T4 type Vex2 receptor) there was about 10-20% more bioactivity. Thus, genotype combinations comprising the R6 type P27 peptide and the R6 type Vex2 receptor or the T4 type P27 peptide and the T4 type Vex2 receptor may facilitate the tolerant phenotype. […]

Test [2] has as its system clinical pneumococcal isolates, which had no defect in the histidine/kinase VncS. Kind of test: Growth of clinical isolates exposed to P27. As to conditions: 0.1 mM of P27. Format: cell-based, pneumococcus. The procedure: To investigate if the peptide P27 was not only capable of triggering different death pathways but was in fact, obligatory, a mutant deficient in P27 was investigated for antibiotic tolerance. […] This was confirmed by Western blot analysis. After addition of 10×MIC of vancomycin, the vexcp3 mutant underwent less than 2 log kill in 4 hours in contrast to 4 log kill of the wild type (FIG. 18A). […] To exclude the possibility that tolerance of the vexp3 mutant resulted from changes in either the expression or intrinsic activity of the autolysin LytA, Western blot analysis of LytA of the vexp3 mutant was performed. […] However, exogenous autolysin from vexp3 mutant was as efficient as that from wild type pneumococcus at reconstitution of lysis of the autolysin deficient strain Lyt-4-4 (FIG. 18C). […] To investigate if this phenomenon was restricted to mutations in VncS or rather to the antibiotic tolerant phenotype, clinical pneumococcal isolates, which had no defect in the histidine/kinase VncS (verified by sequencing), were exposed to 0.1 mM of P27. […] This supports the conclusion that VncS might function as a receptor for P27.

For test [3], the system named is clinical pneumococcal isolate. The test can be described thus: Rabbit model of pneumococcal meningitis. As to conditions: single intrathecal injection of 5 mg/kg, over 8 hours. It is filed as in vivo. How it is done: Rabbit model of pneumococcal meningitis: Pneumococcal meningitis was established according to a standard protocol [Tauber and Zwahlen, Methods Enzymol., 235:92-106 (1994)]. After withdrawal of CSF (300 μl), 10^4 bacteria of a vancomycin tolerant clinical serotype 23 isolate (RNET05) in 200 μl saline was introduced intracisternally in all animals. The rabbits in group one received no treatment, group two received vancomycin (60 mg/kg) six hours after infection: group three received a combination of vancomycin (60 mg/kg) and P27 (4 mg/kg) six hours after infection and group four received P27 (4 mg/kg) six hours after infection. At six hour intervals. CSF (200 μl) was withdrawn and tested for bacterial and leukocyte density.

A further test deals with Lyt 4-4. The test can be described thus: Loss of chain formation (morphology). As to conditions: Lyt-4-4, P27 added. It is filed as cell-based, Streptococcus pneumoniae. The source says: Loss of chain formation is a measure of antibacterial activity independent of autolysin.
Strains of pneumococcus that are tolerant to penicillin, such as Lyt 4-4, grow in long chains as compared to the diplococcal morphology of wild type pneumococci. FIG. 6A illustrates these chains, which extend to 30-50 bacteria in length.
P27 is capable of triggering different autolytic pathways: To identify the relationship between P27 and the activation of the autolysin LytA, the bactericidal effect of the peptide on the pneumococcal mutant Lyt-4-4 (which is deficient in the major autolysin), was investigated. […] Compared to the diplococcal morphology of wild type pneumococci, pneumococci lacking an active autolysin grow in long chains.

A further test relates to vncS deficient mutant. Kind of test: Antimicrobial peptide sensitivity test (growth, viability). Format: cell-based, S. pneumoniae. As to conditions: 0.1 mM P27. How it is done:
(§1) FIGS. 15A-15C show the effect of the synthetic peptide homolog P27 on induced growth inhibition. […] Cultures were in the early exponential phase of growth (10^6 cfu/ml) when treated with the synthetic peptide, P27. FIG. 15B is a block diagram showing the viability counts (after one hour) of parent strain R6, and loss of function mutants vncS, vncR, vex1, vex3, following the addition of 0.1 mM P27. R6 without the peptide is the positive control. […] Experimental conditions are the same as in FIG. 15A.
(§2) Anitmicrobial peptide sensitivity tests: Survival and autolysis rates in the presence of antimicrobial peptides were determined by exposing the parent strain R6 and the vncS deficient mutant to different concentrations (0.05 to 200 μM) of P27 or cecropin B (American Peptide Company, Sunnyvale, Calif., USA) at an OD620nm 0.05 (10^6 cfu/ml). For the disk diffusion assay, agar plates were seeded with a lawn of S. pneumoniae, Enterococcus faecalis, E. faecium, Streptococcus agalactiae, S. pyogenes or Staphylococcus aureus. The plates were incubated for 12 hours at 37° C. with a disk soaked with the synthetic P27 (2 mM). The size of the halo was determined with a ruler.

Test [4] concerns autolysin deficient strain Lyt 4-4. The test can be described thus: Growth and killing of autolysin deficient strain. Format: cell-based, Streptococcus pneumoniae. As to conditions: compared with R6. How it is done: The addition of the additives were made at time “0” hours. The strain of bacteria cultured was the Lyt-4-4 strain of Streptococcus pneumoniae which harbors a mutation leading to the loss of LytA activity. The peptide having the amino acid sequence of SEQ ID NO:2 was added as indicated at a concentration of 0.1 mM. Lyt-4-4 lacks active autolysin LytA and is therefore tolerant to penicillin treatment.
(§3) Cell growth curves were performed in the presence or absence of the test reagents as specified. In short, samples were prepared as follows: 1 ml of a pneumococcus culture was placed into 10 ml of prewarmed Semisynthetic (C+Y) medium. The optical density (OD) of the bacteria was monitored at 620 nm until an OD of approximately 0.1 was reached. At this point the test reagents were administered to the samples. The cells were cultured for up to 11 hours at 37° Celsius, and the OD at 620 nm was monitored every hour. A decrease in OD 620 is indicative of cell lysis, an increase is indicative of bacterial growth. No change in optical density indicates growth inhibition.
This antibacterial effect was also demonstrable in bacteria mutated so as to prevent autolysis by point mutation in the autolysin, as in the autolysin deficient strain Lyt 4-4. […]

The test system of test [5] is different streptococcal species and Staphylococcus aureus. The test can be described thus: Disk diffusion assay. It is filed as cell-based. As to conditions: disk soaked with synthetic P27 (2 mM). How it is done:
as §2

Another test deals with pneumococcal strain R6. The test can be described thus: Cell growth curves (OD 620 nm) and viability of R6 with peptide. Format: cell-based, Streptococcus pneumoniae. As to conditions: peptides at 100 μM added to growing R6 at OD 620 nm of 0.1. The procedure:
as §3
To characterize the antibacterial activity of the peptide, pneumococcal strain R6 which is sensitive to penicillin was exposed to 0.1 mM of the peptide having the amino acid sequence of SEQ ID NO:2 at an optical density of 0.01 (bacterial density of 3×10^6 cfu/ml). Bacterial growth as measured by optical density was followed for 11 hours and viability was assessed by plating on blood agar. […] Four hours after the start of the experiment, the control strain grew from 3×10^6 to 1.2×10^7 cfu/ml. In contrast, four hours after addition of the peptide, the viable bacterial number decreased from 3×10^6 to 3×10^4 CFU/ml (10^3-fold lower than the control).
The fact that the peptide is active in the range below 1 μg/ml places the potency of its antibacterial effect in the same range as conventional antibiotics.
R6 with no peptide was the control and underwent exponential growth. […] This enhanced activity may result from an improvement in folding of the peptide or greater access to the bacterial target.

In another test the test system is parent strain R6. The test can be described thus: Antimicrobial peptide sensitivity test (growth, viability). Format: cell-based, S. pneumoniae. How it is done: as §1
Cultures in the early exponential phase (10^6 cfu/ml) were treated with 0.1 mM P27 (*), 14-mer C-terminal peptide (□), 14-mer N-terminal peptide (Δ), a truncate lacking the 5C-terminal amino acids (◯) or an alternative peptide (⋄).
as §2
To determine the biological effect of P27, cultures of the parent strain R6 at an OD620nm of 0.1 were exposed to 0.1 mM of the synthetic peptide homolog P27 having the amino acid sequence of SEQ ID NO:44. […] This behavior is distinct from all other antibiotics described to date, which have a clear cut MIC.

Test [6] concerns leucine deprived R6 cells. Kind of test: Stringent response: lysis after leucine deprivation. It is filed as cell-based, S. pneumoniae. As to conditions: 10×MIC of penicillin or vancomycin, 0.2 mM P27, or combination. The procedure:
P27 and the stringent response mechanism: The stringent response is believed to prevent the death pathway. To clarify the relationship of the stringent response to P27 activity, protein synthesis of R6 was inhibited by leucine deprivation and the effect of P27 was monitored (FIG. 19). […] The minimum concentration of penicillin required to cause penicillin dependent autolysis was equal to its MIC ([…]).

In test [7] the test system is antibiotic sensitive and LytA deficient bacteria. Kind of test: Potentiation of the bactericidal effect of penicillin. Format: cell-based, S. pneumoniae.

As for “MRKEFHNVLSSDQLLTDKRPARDYNRK (Streptococcus Pneumoniae) [synthetic R6 peptide]”, the “more bioactivity (killing in vitro)” value in [1] is 10-20%.
For “MRKEFHNVLSSGQLLADKRPARDYNRK (listed as Streptococcus pneumoniae) [Peptide P27]”, in test [2], the “growth of clinical isolates” value is listed as “clear reduction in growth”. The “kill of a clinical pneumococcal isolate” value in test [3] is “greater than 2 log”. Besides, the chain formation entry in the test on Lyt 4-4 is listed as “reversion of the chains to diplococci”. In the test on vncS deficient mutant, the “growth inhibition or cell death” value is “did not result in growth inhibition or even cell death”. In test [4], the “bactericidal effect on Lyt-4-4” value is given as “still killed by P27 but not as efficiently as R6”. For the same sequence, the “antibacterial activity against other species” value in [5] was “did not show antibacterial activity”. Moreover, the “ability to inhibit R6 growth” value in the test on pneumococcal strain R6 was “the same effect”. Besides, in the test with parent strain R6 (0.1 mM P27, OD620nm of 0.1), the “growth of R6” value is “potent growth inhibition”. Besides, the “concentrations at which a substantial loss of viability was demonstrated” value in the test with parent strain R6 (R6) is listed as “greater than 0.05 mM”. In addition, the inhibition of growth entry in the test with parent strain R6 (R6, 50 nM P27) is “marginal”; in the test on parent strain R6 (R6, 0.2 mM P27), “complete growth arrest”. Besides, the “dose dependence of the extent of growth inhibition” value in the test on parent strain R6 (R6, 50 nM to 0.2 mM) is “dose dependent”. Moreover, the loss of viability in the test on parent strain R6 (R6, 0.1 mM P27) came to 2 log units. For the same sequence, in [6], the “lysis of R6 under leucine deprivation” value was “neither the addition of 10×the MIC of penicillin or vancomycin nor the addition of 0.2 mM P27 resulted in lysis”. Further, in test [7], the “effect on bactericidal effect of penicillin” value was “potentiates the bactericidal effect of penicillin”.
